Source: the NIST ThermoML archive (doi:10.1016/j.jct.2018.06.007)

Tests used:
[1] = 101 kPa, Liquid; for speed of sound: Frequency=2 MHz, Linear variable-path acoustic interferometer; for mass density: Pycnometric method
[2] = xn = mol fraction of the nth substance listed; settings: 101 kPa, Liquid; for speed of sound: Frequency=2 MHz, Linear variable-path acoustic interferometer; for mass density: Pycnometric method

CCN(CC)CCO [(diethylamino)ethanol]
[1]
Settings	mass density [kg/m3]	speed of sound [m/s]
293.15 K	884.37	1366.5
303.15 K	874.93	1327.3
313.15 K	865.62	1285

CCN(CC)CCO [(diethylamino)ethanol] + CCCCO
[2]
Settings	mass density, 293.15 K [kg/m3]	mass density, 303.15 K [kg/m3]	mass density, 313.15 K [kg/m3]	speed of sound, 293.15 K [m/s]	speed of sound, 303.15 K [m/s]	speed of sound, 313.15 K [m/s]
x1 = 0.0902	820.03	812.47	805.16	1276.3	1239.8	1204.1
x1 = 0.1941	831.16	823.43	815.92	1291.2	1254.8	1218.7
x1 = 0.2938	840.82	832.89	825.11	1304.3	1267.7	1231
x1 = 0.4045	850.42	842.23	834.18	1317.8	1281	1243.5
x1 = 0.5081	858.32	849.91	841.63	1329.2	1292.2	1254
x1 = 0.6088	865.03	856.45	847.98	1339.3	1302.1	1263.3
x1 = 0.7129	871.14	862.42	853.78	1348.6	1311.2	1271.9
x1 = 0.8131	876.29	867.39	858.66	1356.4	1318.7	1278.8
x1 = 0.9037	880.46	871.28	862.4	1362.2	1324	1283.2
x1 = 1	884.37	874.93	865.62	1366.5	1327.3	1285

CCN(CC)CCO [(diethylamino)ethanol] + CCCO
[2]
Settings	mass density, 293.15 K [kg/m3]	mass density, 303.15 K [kg/m3]	mass density, 313.15 K [kg/m3]	speed of sound, 293.15 K [m/s]	speed of sound, 303.15 K [m/s]	speed of sound, 313.15 K [m/s]
x1 = 0.0937	817.5	809.54	801.82	1247.7	1213.2	1178.9
x1 = 0.1994	830.99	822.96	815.1	1269	1234.4	1199.7
x1 = 0.3005	842.11	833.85	825.77	1287.6	1252.7	1217.3
x1 = 0.4048	851.86	843.48	835.1	1305	1269.5	1233.2
x1 = 0.5072	859.98	851.48	842.85	1320.1	1284.1	1247
x1 = 0.61	866.74	858.08	849.33	1333.3	1296.9	1259.2
x1 = 0.7093	872.27	863.47	854.7	1344	1307.3	1269.4
x1 = 0.801	876.7	867.78	858.95	1352.2	1315.3	1277
x1 = 0.9047	881.06	871.91	862.91	1360.1	1322.3	1282.5
x1 = 1	884.37	874.93	865.62	1366.5	1327.3	1285

CCCCO [butan-1-ol]
[1]
Settings	mass density [kg/m3]	speed of sound [m/s]
293.15 K	809.53	1261.9
303.15 K	802	1224.7
313.15 K	794.7	1188.8

CCCCO [butan-1-ol] + CCN(CC)CCO
[2], x2 = 0
Settings	mass density [kg/m3]	speed of sound [m/s]
293.15 K	809.53	1261.9
303.15 K	802	1224.7
313.15 K	794.7	1188.8

CCCO [propan-1-ol]
[1]
Settings	mass density [kg/m3]	speed of sound [m/s]
293.15 K	803.76	1227
303.15 K	795.82	1192.5
313.15 K	787.88	1157.7

CCCO [propan-1-ol] + CCN(CC)CCO
[2], x2 = 0
Settings	mass density [kg/m3]	speed of sound [m/s]
293.15 K	803.76	1227
303.15 K	795.82	1192.5
313.15 K	787.88	1157.7
